From US8946260B2, “17α-hydroxylase/C17,20-lyase inhibitors” (Novartis AG, priority 2010, dated 2015)

target: T1, recombinant Human CYP17 enzyme (17-20 lyase) (Homo sapiens, UniProt P05093); experiment: Cytochrome P450, 17-20 lyase (CYP17-lyase) assay, 17-α-hydroxy pregnenolone [21-3H] as substrate; assay type: biochemical; settings: at 10 μM; read-out: hCYP17 Lyase % Inh
T1 construct: made in house; host or cells: A549 cells, adenoviral expression system; purified cell membrane preparations
T1 sequence (P05093 1-508): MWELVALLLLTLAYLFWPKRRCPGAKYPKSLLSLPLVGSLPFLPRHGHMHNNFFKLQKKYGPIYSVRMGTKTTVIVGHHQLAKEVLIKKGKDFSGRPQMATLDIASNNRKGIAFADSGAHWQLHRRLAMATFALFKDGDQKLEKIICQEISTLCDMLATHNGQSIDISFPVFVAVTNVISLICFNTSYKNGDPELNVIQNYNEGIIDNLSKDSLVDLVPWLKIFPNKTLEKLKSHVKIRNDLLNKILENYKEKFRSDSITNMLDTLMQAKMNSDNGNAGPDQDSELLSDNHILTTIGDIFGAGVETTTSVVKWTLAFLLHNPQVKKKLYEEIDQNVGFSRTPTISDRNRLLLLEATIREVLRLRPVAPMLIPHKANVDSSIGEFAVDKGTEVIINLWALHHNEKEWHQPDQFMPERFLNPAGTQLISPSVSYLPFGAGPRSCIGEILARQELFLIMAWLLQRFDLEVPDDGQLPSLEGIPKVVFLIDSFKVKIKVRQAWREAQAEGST
Source text: 1) Cytochrome P450, 17-20 Lyase (CYP17-Lyase) Assay Development Using Recombinant Human CYP17 Enzyme and 17-α-Hydroxy Pregnenolone [21-3H] as the Substrate.
Cytochrome P450, 17-α-Hydroxylase, 17-20 lyase (CYP17) is a multi functional enzyme that plays a key role in the biosynthesis of steroid hormones. It catalyses both conventional hydroxylation and also the carbon-carbon bond cleavage reactions (Peter Lee-Robichaud et al, Biochem. J, (1997) 321, 857-63). In the hydroxylation reaction, it converts progesterone and pregnenolone to the corresponding hydroxylated products 17-α-hydroxy progesterone and 17-α-hydroxy pregnenolone. In the lyase reaction, it catalyzes the conversion of these hydroxylated substrates to Androstenedione and Dehydroepiandrosterone (DHEA) respectively. In the Cyp17 lyase assay described here, the conversion of 17-α-hydroxy pregnenolone to Dehydroepiandrosterone and acetic acid is being monitored.
Assay method was adopted from a published protocol with some modifications to suit our requirements (Dmitry N Grigoryev et al, Analytical Biochemistry, (1999) 267, 319-330). The conversion of 17-α-hydroxy pregnenolone to Dehydroepiandrosterone is accompanied by the release of acetic acid. In the Cyp17 lyase assay, 17-α-hydroxy pregnenolone labeled with tritium (3H) at position 21 is used as the substrate. Chloroform extraction removes the radioactive steroids and acetic acid is taken into aqueous layer. The tritiated acetic acid released in the assay thus extracted is quantified to determine the enzyme activity.
Initial buffer conditions were, 50 mM Phosphate buffer, pH 7.5 was used as the starting buffer for Cyp17 lyase activity based on the data published in US patent publication No. US2004/0198773 A1. […] Human Cyp 17 gene was cloned and expressed in Adenoviral expression system in A549 cell lines. The purified cell membrane preparations were used as the source for Human CYP17 enzyme. Total protein concentration: 8 mg/mL.
For routine screening, the assay was set up with 16 μg of enzyme in 50 μL reaction volume. 17α-hydroxy pregnenolone [21-3H] was added to a final concentration of 0.25 μM. NADPH is used at a final concentration of 4.2 mM. Total reaction volume was made up to 50 μL with 50 mM Phosphate buffer pH 7.5. The reaction mixture was incubated at room temperature for 90 minutes with gentle shaking. The reaction was stopped by the addition of 100 μL of buffer. 500 μL of 5% freshly prepared activated charcoal was added to the solution and mixed well by vortexing. The samples were centrifuged at 17568×g for 5 minutes. (14000 rpm). The supernatant was carefully transferred to fresh tube and 1.3 mL of scintillation fluid was added, mixed by vortexing.
The radioactivity was measured in a 1450 MicroBeta TriLux™ scintillation counter from Wallac-Perkin Elmer®, USA. The measurements were carried out in 2.0 mL Eppendorf™ tubes. Each tube was counted for 1 minute. The amount of tritiated acetic acid released is proportional to the lyase activity. Percent lyase activity in presence of inhibitor was calculated using the formula given below.
[formula] • Sample: Enzyme reaction in presence of inhibitor. • Positive control: Enzyme reaction without inhibitor but containing DMSO at 1% final concentration. • Blank—Contains all reagents except enzyme. • % Inhibition=100%−% Lyase activity
For IC50 determination, the % inhibition was plotted as a function of inhibitor concentration. The data was fitted to sigmoidal equation using Graphpad Prism® software IV to generate IC50 values.

SMILES	inhibition at 10 µM [%]
Cc1ccncc1N1CCc2sccc2C1=O [Example 7A, 5-(4-Methyl-pyridin-3-yl)-6,7-dihydro-5H-thieno[3,2-a]pyridin-4-one]	75
Cc1ccncc1N1CCc2c(cccc2C(F)(F)F)C1=O [Example 22A, 2-(4-Methyl-pyridin-3-yl)-5-trifluoromethyl-3,4-dihydro-2H-isoquinolin-1-one]	42
Cc1ccncc1N1CCc2ccc(Oc3ncc(F)cn3)cc2C1=O [Example 37A, 7-(5-fluoropyrimidin-2-yloxy)-2-(4-methylpyridin-3-yl)-3,4-dihydroisoquinolin-1(2H)-one]	63
O=C1c2ccsc2CCN1c1cccnc1 [Example 8A, 5-Pyridin-3-yl-6,7-dihydro-5H-thieno[3,2-c]pyridin-4-one]	27
Cc1ccncc1N1CCc2scc(-c3ccc(F)cc3)c2C1=O [Example 15A, 3-(4-Fluoro-phenyl)-5-(4-methyl-pyridin-3-yl)-6,7-dihydro-5H-thieno[3,2-c]pyridin-4-one]	35
Cc1ccncc1-n1ccc2ccc(NC(=O)C3CC3)cc2c1=O [Example 24A, Cyclopropanecarboxylic acid [2-(4-methyl-pyridin-3-yl)-1-oxo-1,2-dihydro-isoquinolin-7-yl]-amide]	53
Cc1ccncc1N1CCc2c(Cl)cccc2C1=O [Example 12A, 5-Chloro-2-(4-methyl-pyridin-3-yl)-3,4-dihydro-2H-isoquinolin-1-one]	64

same assay, conditions: human CYP17 lyase; substrate 0.25 μM; room temperature, 90 minutes

SMILES	Lyase IC 50 nM Human
O=C1c2ccc(F)cc2CCN1c1cnccc1C(F)(F)F [Example 78A, 6-fluoro-2-(4-(trifluoromethyl)pyridin-3-yl)-3,4-dihydroisoquinolin-1(2H)-one]	Not active

same assay, conditions: human CYP17 lyase; substrate 0.25 μM; room temperature, 90 minutes; read-out: Lyase IC 50 nM Human

SMILES	IC50 [nM]
CCn1c2c(c3ccccc31)CC(C)N(c1cccnc1)C2=O (stereo not shown) [Example 42A, 9-ethyl-3-methyl-2-(pyridin-3-yl)-2,3,4,9-tetrahydro-1H-pyrido[3,4-b]indol-1-one]	55
Cc1ccncc1N1CCc2cc(F)c(F)cc2C1=O [Example 49A, 6,7-difluoro-2-(4-methylpyridin-3-yl)-3,4-dihydroisoquinolin-1(2H)-one]	159
Cc1ccncc1-n1ccc2[nH]c3ccccc3c2c1=O [Example 62A, 2-(4-methylpyridin-3-yl)-2,5-dihydro-1H-pyrido[4,3-b]indol-1-one]	17
Cc1ccncc1N1CC(C)(C)c2ccc(C(F)(F)F)cc2C1=O [Example 20A, 4,4-Dimethyl-2-(4-methyl-pyridin-3-yl)-7-trifluoromethyl-3,4-dihydro-2H-isoquinolin-1-one]	369
O=C1c2cc(C(F)(F)F)ccc2CCN1c1cnccc1CN1CCCC1 [Example 52A, 2-(4-(Pyrrolidin-1-ylmethyl)pyridin-3-yl)-7-(trifluoromethyl)-3,4-dihydroisoquinolin-1(2H)-one]	556
Cc1ccncc1N1CCc2cc(C#N)c(Cl)cc2C1=O [Example 88A, 7-chloro-2-(4-methylpyridin-3-yl)-1-oxo-1,2,3,4-tetrahydroisoquinoline-6-carbonitrile]	11
Cc1ccncc1N1CCc2ccc(C(F)(F)F)cc2C1=O [Example 4A, 2-(4-Methyl-pyridin-3-yl)-7-trifluoromethyl-3,4-dihydro-2H-isoquinolin-1-one]	5.5
O=C1c2cc(Cl)c(F)cc2CCN1c1cnccc1C(F)(F)F [Example 80A, 7-chloro-6-fluoro-2-(4-(trifluoromethyl)pyridin-3-yl)-3,4-dihydroisoquinolin-1(2H)-one]	173
O=C1c2cc(Cl)c(Cl)cc2CCN1c1cnccc1C(F)(F)F [Example 55A, 6,7-dichloro-2-(4-(trifluoromethyl)pyridin-3-yl)-3,4-dihydroisoquinolin-1(2H)-one]	125
O=C1c2c(sc3ccccc23)CCN1c1cnccc1C(F)(F)F [Example 58A, 2-(4-trifluoromethylpyridine-3-yl)-3,4-dihydro-2H-benzo[4,5]thieno[3,2-c]pyridin-1-one]	218
Cc1ccncc1N1CCc2ccc(Cl)c(F)c2C1=O [Example 33A, 7-chloro-8-fluoro-2-(4-methylpyridin-3-yl)-3,4-dihydroisoquinolin-1(2H)-one]	13
Cc1ccncc1N1CCc2c([nH]c3ccccc23)C1=O [Example 61A, 2-(4-methylpyridin-3-yl)-2,3,4,9-tetrahydro-1H-pyrido[3,4-b]indol-1-one]	1510
Cc1ccncc1N1CCc2ccc(OCC3CC3)cc2C1=O [Example 31A, 7-(cyclopropylmethoxy)-2-(4-methylpyridin-3-yl)-3,4-dihydroisoquinolin-1 (2H)-one]	727
O=C1c2cc(Cl)ccc2CCN1c1cnccc1C1CC1 [Example 74A, 7-chloro-2-(4-cyclopropylpyridin-3-yl)-3,4-dihydroisoquinolin-1 (2H)-one]	23
Cc1ccncc1N1CCc2ccc(Cl)cc2C1=O [Example 2A, 7-Chloro-2-(4-methyl-pyridin-3-yl)-3,4-dihydro-2H-isoquinolin-1-one]	37
COc1ccc2c(c1)CCN(c1cnccc1C)C2=O [Example 11A, 6-Methoxy-2-(4-methyl-pyridin-3-yl)-3,4-dihydro-2H-isoquinolin-1-one]	214
O=C1c2c(sc3ccc(F)cc23)CCN1c1cnccc1C(F)(F)F [Example 57A, 8-Fluoro-2-(4-trifluoromethylpyridine-3-yl)-3,4-dihydro-2H-benzo[4,5]thieno[3,2-c]pyridin-1-one]	548
O=C1c2cc3[nH]ncc3cc2CCN1c1cnccc1C(F)(F)F [Example 72A, 7-(4-(trifluoromethyl)pyridin-3-yl)-6,7-dihydro-1H-pyrazolo[4,3-g]isoquinolin-8(5H)-one]	730
CCc1ccncc1N1CCc2ccc(Cl)cc2C1=O [Example 75A, 7-chloro-2-(4-ethylpyridin-3-yl)-3,4-dihydroisoquinolin-1(2H)-one]	8
COc1ccc2c(c1)C(=O)N(c1cnccc1C)CC2 [Example 26A, 7-Methoxy-2-(4-methyl-pyridin-3-yl)-3,4-dihydro-2H-isoquinolin-1-one]	17
O=c1c2c(ccn1-c1cnccc1C(F)(F)F)[nH]c1ccc(F)cc12 [Example 64A, 8-fluoro-2-(4-(trifluoromethyl)pyridin-3-yl)-2,5-dihydro-1H-pyrido[4,3-b]indol-1-one]	829
Cc1ccncc1N1CCc2sc(-c3ccc(F)cc3)cc2C1=O [Example 14A, 2-(4-Fluoro-phenyl)-5-(4-methyl-pyridin-3-yl)-6,7-dihydro-5H-thieno[3,2-c]pyridin-4-one]	755
Cc1ccncc1N1CCc2sc3ccc(F)cc3c2C1=O [Example 50A, 8-Fluoro-2-(4-methylpyridin-3-yl)-3,4-dihydrobenzo[4,5]thieno[3,2-c]pyridin-1(2H)-one]	6
